# According to patent publication US11072601B2, “μ-opioid receptor agonist and preparation method therefor and use thereof in field of medicine” (SHANGHAI SYNERGY PHARMACEUTICAL SCIENCES CO., LTD., priority 2017, dated 2021):
# How the values were obtained:
# [1] = system: rat surgical incision injury model; test: Rat surgical incision injury model, von Frey paw withdrawal threshold; format: in vivo, SD rats; conditions: rats, intravenous 0.3 mg/kg
# Text: 8-week-old male SD rats weighing 200 g-300 g were used as experimental animals to determine the effect of the compound of Example H02, the compound of Example H04, the compound of Example H10, the compound of Example H16, the compound of Example H17, the compound of Example H18, the compound of Example H21 and the compound of Example H24 on surgical pain in rats after intravenous administration. The analgesic effect of the compounds was discussed.
# A certain amount of the compounds or TRV130 (MCE, 15150) was weighed, and dissolved in ethanol/castor oil/water=10/10/80 as a clear and transparent solution.
# Three days after the rats were acclimatized to the experimental environment, the preoperative base value was determined, and followed by the surgical pain operation described below, about 24 hours after the surgery, the basic value was measured before administration on all animals, and mechanically hypersensitive animals (the paw withdrawal threshold (PWT) was less than 5 g) was randomly assigned to each administration group according to PWT. The pain threshold was determined 30 minutes and 60 minutes after intravenous administration of the positive drug TRV130 or each compound of the present invention (at a dose of 0.3 mg/kg).
# The surgical procedure was performed aseptically, and the surgical instruments (scissors, tweezers, scalpels, surgical cotton and sutures) were sterilized before surgery. The animals were anesthetized with sodium pentobarbital (50 mg/kg, injected intraperitoneally), and the toes of the animals were squeezed to confirm that the animals were completely anesthetized before surgery. From the position of 0.5 cm away from the heel, an incision about 1 cm was made in the longitudinal direction of the toe. After cutting the skin, the musculus flexor digitorum brevis was raised and a blunt injury was caused longitudinally. After pressing to stop bleeding, the wound was sutured. When the animal was completely awake (free to move), the animal was put back into the cage (the reference of the construction of surgical pain model: Timothy J. Brennan, Erik P. Vandermeulen, G. F. Gebhart. Characterization of a rat model of incisional pain. Pain, 64(1996):493-501).
# An up-down method was used for the determination of pain sensitivity. The mechanical pain results were expressed as animal paw withdrawal response threshold (PWT). The rat was placed separately in a plexiglass box with a mesh at the bottom of the box to ensure that the rat's feet could be tested. The rat was acclimatized for 15 minutes before the test, and after the acclimatization, the test fiber (von frey fiber, West coast) was used to test in the middle part of the hind foot of the rat. The test fibers included 8 test strengths: 3.61 (0.4 g), 3.84 (0.6 g), 4.08 (1 g), 4.31 (2 g), 4.56 (4 g), 4.74 (6 g), 4.93 (8 g), and 5.18 (15 g). During the test, the test fiber was pressed vertically against the skin and a force was applied to bend the fiber for 6-8 seconds, at an interval of 5 seconds between each test. During the test, the animal's rapid withdrawal was recorded as a pain response. When the test fiber left the animal's skin, the animal's withdrawal was also recorded as a pain response. Starting from 2 g, depending on whether the rats had any pain response, the test was changed into the next test intensity or the previous test intensity. A series of responses of the rats to different test intensities were recorded. […] Wherein, Xf was the logarithmic value of von Frey fiber used in the last test, and K value was the animal withdrawal reaction mode (recorded during the test), which was the value obtained after looking up the table according to the obtained sequence of “X” and “O”, δ=Mean of logarithmic difference between von Frey fibers used in the test.
# [2] = biological target: T1, μ opioid receptor (MOR) (Homo sapiens, UniProt P35372); test: cell-based; conditions: HEK293 stably expressing μ opioid receptor, FLIPR calcium
# T1 construct: host or cells: HEK293
# [3] = system: SD rats; test: Respiratory depression in rats, arterial blood gas PCO2; format: in vivo; conditions: for PCO2, 5 min before administration: arterial blood; for PCO2, 5 min after administration / PCO2, 30 min after administration / PCO2, 60 min after administration / PCO2, 120 min after administration: intravenous single dose 0.3 mg/kg (morphine 24 mg/kg)
# T1 sequence (P35372 whole entry, species assumed): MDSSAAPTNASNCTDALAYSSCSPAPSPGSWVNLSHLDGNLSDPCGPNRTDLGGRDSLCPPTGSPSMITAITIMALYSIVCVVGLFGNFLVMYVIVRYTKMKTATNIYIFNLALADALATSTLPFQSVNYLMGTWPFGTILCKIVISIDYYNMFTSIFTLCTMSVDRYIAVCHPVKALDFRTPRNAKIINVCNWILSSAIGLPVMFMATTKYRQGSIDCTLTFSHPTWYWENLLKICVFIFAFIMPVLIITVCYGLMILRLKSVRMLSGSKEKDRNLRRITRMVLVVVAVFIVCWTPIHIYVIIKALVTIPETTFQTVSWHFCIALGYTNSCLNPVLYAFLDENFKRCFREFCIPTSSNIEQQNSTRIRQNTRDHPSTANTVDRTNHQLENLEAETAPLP
Compound,"50% PWT, 30 min after administration [1]","50% PWT, 60 min after administration [1]",EC50 [2],"PCO2, 5 min before administration [3]","PCO2, 5 min after administration [3]","PCO2, 30 min after administration [3]","PCO2, 60 min after administration [3]","PCO2, 120 min after administration [3]"
"Cc1c(Cl)cccc1CNCCC1(c2ccccn2)CCOC2(CCCC2)C1 (stereo not shown) [Example H04, (3-chloro-2-methylbenzyl)-[2-(9-(pyridin-2-yl)-6-oxaspiro[4.5]decan-9-yl)ethyl]amine]",11.72 ± 0.56 g,8.29 ± 1.06 g,6.05 nM,–,–,–,–,–
"FC(F)Oc1ccccc1CNCCC1(c2ccccn2)CCOC2(CCCC2)C1 (stereo not shown) [Example H16, (2-difluoromethoxybenzyl)-[2-(9-(pyridin-2-yl)-6-oxaspiro[4.5]decan-9-yl)ethyl]amine]",13.72 ± 0.56 g,10.29 ± 1.06 g,9.06 nM,35.27 ± 0.43 mmHg,30.48 ± 1.24 mmHg,30.03 ± 0.62 mmHg,31.27 ± 1.2 mmHg,31.83 ± 1.40 mmHg
"FC(F)(F)Oc1ccc(Cl)cc1CNCCC1(c2ccccn2)CCOC2(CCCC2)C1 (stereo not shown) [Example H17, (5-chloro-2-trifluoromethoxybenzyl)-[2-(9-(pyridin-2-yl)-6-oxaspiro[4.5]decan-9-yl)ethyl]amine]",8.85 ± 1.59 g,7.91 ± 1.43 g,8.68 nM,34.77 ± 1.88 mmHg,35.48 ± 1.74 mmHg,34.03 ± 1.69 mmHg,34.27 ± 1.4 mmHg,34.83 ± 1.15 mmHg
"FC(F)Oc1ccsc1CNCCC1(c2ccccn2)CCOC2(CCCC2)C1 (stereo not shown) [Example H18, ((3-difluoromethoxythiophen-2-yl)methyl)-[2-(9-(pyridin-2-yl)-6-oxaspiro[4.5]decan-9-yl)ethyl]a mine]",7.85 ± 0.54 g,6.91 ± 0.33 g,7.32 nM,33.77 ± 0.88 mmHg,35.48 ± 1.54 mmHg,34.03 ± 0.69 mmHg,36.27 ± 1.4 mmHg,34.83 ± 1.45 mmHg
"Fc1ccc(C2(CCNCc3ccccc3OC(F)(F)F)CCOC3(CCCC3)C2)nc1 (stereo not shown) [Example H21, {2-[9-(5-fluoro-pyridin-2-yl)-6-oxa-spiro[4.5]decan-9-yl]-ethyl}-(2-(trifluoromethoxy)-phenmethyl)-amine]",10.72 ± 2.56 g,8.29 ± 1.06 g,4.02 nM,36.77 ± 1.78 mmHg,35.48 ± 1.72 mmHg,36.03 ± 1.42 mmHg,37.27 ± 1.94 mmHg,36.83 ± 1.65 mmHg
"CNc1ccsc1C(=O)NCCC1(c2ccccn2)CCOC2(CCCC2)C1 (stereo not shown) [Example H24, 3-methylamino-thiophene-2-carboxylic acid [2-(9-pyridin-2-yl-6-oxa-spiro[4.5]decan-9-yl)-ethyl]-amide]",11.32 ± 2.35 g,7.29 ± 1.23 g,10.7 nM,36.77 ± 1.94 mmHg,36.48 ± 1.80 mmHg,33.03 ± 0.72 mmHg,36.27 ± 1.57 mmHg,36.83 ± 1.73 mmHg
